Converted amounts (≈) assume the structure as drawn.
How the values were obtained:
Micrococcus luteus = assay: Antibacterial activity against Micrococcus luteus ATCC 4698 after 24 hrs by micro broth dilution method; type: functional; settings: ATCC 4698, 24 h
Candida albicans = assay: Antifungal activity against Candida albicans ATCC 90029 after 24 hrs by micro broth dilution method; type: functional; settings: ATCC 90029, 24 h
Bacillus sp. = assay: Antibacterial activity against Bacillus proteus ATCC 13315 after 24 hrs by micro broth dilution method; type: functional; settings: Bacillus sp. (in: firmicutes), ATCC 13315, 24 h
Escherichia coli = assay: Antibacterial activity against Escherichia coli DH52 after 24 hrs by micro broth dilution method; type: functional; settings: DH52, 24 h
Bacillus spizizenii = assay: Antibacterial activity against Bacillus subtilis ATCC 6633 after 24 hrs by micro broth dilution method; type: functional; settings: ATCC 6633, 24 h
Shigella dysenteriae = assay: Antibacterial activity against Shigella dysenteriae ATCC 51252 after 24 hrs by micro broth dilution method; type: functional; settings: ATCC 51252, 24 h
Candida = assay: Antifungal activity against Candida mycoderma after 24 hrs by micro broth dilution method; type: functional
Staphylococcus aureus [1] = assay: Antibacterial activity against Staphylococcus aureus ATCC 25923 after 24 hrs by micro broth dilution method; type: functional; settings: ATCC 25923, 24 h
[2] = Ionization constant, pKa of the compound by UV spectroscopy; type: physicochemical
[3] = n-octanol/water partition coefficient, log P of the compound at 25 deg C after 24 hrs by saturation shake flask based UV spectroscopy; type: physicochemical
Cyberlindnera jadinii = assay: Antifungal activity against Candida utilis ATCC 9950 after 24 hrs by micro broth dilution method; type: functional; settings: Williopsis jadinii, ATCC 9950, 24 h
Pseudomonas aeruginosa = assay: Antibacterial activity against Pseudomonas aeruginosa ATCC 27853 after 24 hrs by micro broth dilution method; type: functional; settings: ATCC 27853, 24 h
Staphylococcus aureus [4] = assay: Antibacterial activity against methicillin-resistant Staphylococcus aureus N315 after 24 hrs by micro broth dilution method; type: functional; settings: N315, 24 h
Aspergillus flavus = assay: Antifungal activity against Aspergillus flavus after 24 hrs by micro broth dilution method; type: functional

Row | Structure (SMILES) | MIC (Micrococcus luteus) | MIC (Candida albicans) | MIC (Bacillus sp.) | MIC (Escherichia coli) | MIC (Bacillus spizizenii) | MIC (Shigella dysenteriae) | MIC (Candida) | MIC (Staphylococcus aureus [1]) | pKa [2] | logP at 24 h [3] | MIC (Cyberlindnera jadinii) | MIC (Pseudomonas aeruginosa) | MIC (Staphylococcus aureus [4]) | MIC (Aspergillus flavus)
1 | Cc1ccc(N(Cc2nnn[nH]2)Cc2ccc(Cl)cc2Cl)cc1 | 32 µg/mL (≈ 91.9 µM) | 16 µg/mL (≈ 45.9 µM) | 32 µg/mL (≈ 91.9 µM) | 16 µg/mL (≈ 45.9 µM) | 64 µg/mL (≈ 184 µM) | 32 µg/mL (≈ 91.9 µM) | 8 µg/mL (≈ 23 µM) | 32 µg/mL (≈ 91.9 µM) | 4.26 | 1.99 | 16 µg/mL (≈ 45.9 µM) | 32 µg/mL (≈ 91.9 µM) | 16 µg/mL (≈ 45.9 µM) | 16 µg/mL (≈ 45.9 µM)
2 | Clc1ccc(CN(Cc2nnn[nH]2)c2ccccc2)cc1 | 64 µg/mL (≈ 214 µM) | 16 µg/mL (≈ 53.4 µM) | 32 µg/mL (≈ 107 µM) | 32 µg/mL (≈ 107 µM) | 32 µg/mL (≈ 107 µM) | 64 µg/mL (≈ 214 µM) | 16 µg/mL (≈ 53.4 µM) | 64 µg/mL (≈ 214 µM) | 4.38 | 1.39 | 32 µg/mL (≈ 107 µM) | 64 µg/mL (≈ 214 µM) | 128 µg/mL (≈ 427 µM) | 32 µg/mL (≈ 107 µM)
3 | COc1ccc(N(Cc2nnn[nH]2)Cc2ccc(Cl)cc2Cl)cc1 | 32 µg/mL (≈ 87.9 µM) | 16 µg/mL (≈ 43.9 µM) | 32 µg/mL (≈ 87.9 µM) | 32 µg/mL (≈ 87.9 µM) | 32 µg/mL (≈ 87.9 µM) | 32 µg/mL (≈ 87.9 µM) | 8 µg/mL (≈ 22 µM) | 32 µg/mL (≈ 87.9 µM) | 4.29 | 1.58 | 8 µg/mL (≈ 22 µM) | 32 µg/mL (≈ 87.9 µM) | 64 µg/mL (≈ 176 µM) | 16 µg/mL (≈ 43.9 µM)
4 | COc1ccc(N(Cc2nnn[nH]2)Cc2ccc(F)cc2F)cc1 | 64 µg/mL (≈ 193 µM) | 32 µg/mL (≈ 96.6 µM) | 64 µg/mL (≈ 193 µM) | 64 µg/mL (≈ 193 µM) | 64 µg/mL (≈ 193 µM) | 64 µg/mL (≈ 193 µM) | 16 µg/mL (≈ 48.3 µM) | 64 µg/mL (≈ 193 µM) | 4.31 | 1.37 | 16 µg/mL (≈ 48.3 µM) | 64 µg/mL (≈ 193 µM) | 64 µg/mL (≈ 193 µM) | 32 µg/mL (≈ 96.6 µM)

Reference: ChEMBL document CHEMBL3621169, “Synthesis of tetrazole compounds as a novel type of potential antimicrobial agents and their synergistic effects with clinical drugs and interactions with calf thymus DNA” (Medchemcomm, 2015)
